Laboratory results as given in US20160250177A1, “MODIFIED DOCETAXEL LIPOSOME FORMULATIONS AND USES THEREOF” (MALLINCKRODT LLC, priority 2015, published 2016).
Where two headings read alike, the source gives them in different places.

Legend:
[1] = Tissue distribution in mice with A549 xenograft; conditions: for Kidney AUC of docetaxel / Liver AUC of docetaxel / Lung AUC of docetaxel / Muscle AUC of docetaxel / Spleen AUC of docetaxel / Tumor AUC of docetaxel: single IV
Protocol: The plasma pharmacokinetics and distribution were studied in female athymic nude mice each implanted subcutaneously with A549 cells (human non-small cell lung cancer). Once tumors reached a volume of 100-300 mm^3, animals were randomized into 4 groups.
Three animals were sacrificed at 1, 4, 24, 72 (3 days), 168 (7 days), 216 (9 days), 336 (14 days), 432 (18 days) and 504 hours (21 days) post injection.

[2] = cited from earlier work
[3] = tested on: human PC3 (prostate) tumor xenograft; assay: Antitumor activity, single IV dose, PC3 xenograft; conditions: for Partial Tumor Regression (%) / TGD / TGD (%) / TGI (%) / median survival: single IV
Protocol: Tumor cell lines were implanted subcutaneously into the flank of nude (immunodeficient) mice and allowed to grow to a fixed size. […] In each case, where possible, doses were selected as providing equivalent levels of toxicity/tolerance. […] Tumor volume was analyzed to determine tumor growth delay (TGD) and partial regression. Mice were removed from the study if they lost 20% of their initial bodyweight or became moribund or if their tumor volume exceeded 2500 mm^3 or the tumor ulcerated. If less than half of the initial cohort of mice remained, that group was no longer graphed or included in further tumor analysis. However, any remaining animals were followed until completion of the in-life observation period and included in a survival analysis.

clinical = conditions: human, in vivo, iv
[4] = tested on: PC3 human prostate xenograft; conditions: for median survival: docetaxel
Protocol: In another study, athymic male nude mice bearing PC3 human prostate xenograft were given two or four intravenous (IV) doses of PEGylated TD-1 liposome, Taxotere® or saline. Dosing intervals were twenty-one days for two cycles or every four days for four cycles.
Tumor volume was measured 2-3 times per week using the Biopticon tumor imaging system and tumor volume data was analyzed to determine TGD and partial tumor regression. Survival analysis was conducted and median survival time determined.

[5] = human, in vivo; for AUC(0-inf) / AUC/Dose / CL / Cmax/Dose / Vss: iv
[6] = high dose Taxotere® 100 mg/m^2, van Oosterom 1995

CC(=O)O[C@@]12CO[C@@H]1C[C@H](O)[C@@]1(C)C(=O)[C@H](O)C3=C(C)[C@@H](OC(=O)[C@H](O)[C@@H](NC(=O)OC(C)(C)C)c4ccccc4)C[C@@](O)([C@@H](OC(=O)c4ccccc4)[C@H]21)C3(C)C [Docetaxel, docetaxel]
Kidney AUC of docetaxel ([1]; docetaxel 30 mg/kg): 28 µg·h/g
Liver AUC of docetaxel ([1]; docetaxel 30 mg/kg): 10 µg·h/g
Lung AUC of docetaxel ([1]; docetaxel 30 mg/kg): 86 µg·h/g
Muscle AUC of docetaxel ([1]; docetaxel 30 mg/kg): 23 µg·h/g
Spleen AUC of docetaxel ([1]; docetaxel 30 mg/kg): 77 µg·h/g
Tumor AUC of docetaxel ([1]; docetaxel 30 mg/kg): 276 µg·h/g
time tumor retained measurable levels of docetaxel ([1]; docetaxel 50 mg/kg): 216 h
Kidney AUC of docetaxel ([1]; docetaxel 50 mg/kg): 179 µg·h/g
Liver AUC of docetaxel ([1]; docetaxel 50 mg/kg): 37 µg·h/g
Lung AUC of docetaxel ([1]; docetaxel 50 mg/kg): 211 µg·h/g
Muscle AUC of docetaxel ([1]; docetaxel 50 mg/kg): 64 µg·h/g
Spleen AUC of docetaxel ([1]; docetaxel 50 mg/kg): 162 µg·h/g
Tumor AUC of docetaxel ([1]; docetaxel 50 mg/kg): 442 µg·h/g
time after which docetaxel concentrations fell below the limits of quantitation in most tissues ([1]; docetaxel 50 mg/kg, all tissues except tumor): 24 h
time after which tumor levels of docetaxel fell below the levels of quantitation (1.0 μg/g) ([1]; intravenous injection of docetaxel): nine
reported t1/2 ([2]; Taxotere® (docetaxel), Clarke & Rivory 1999, Prescribing Information): 12 h
docetaxel Cmax [2, 6]: 2680 ng/mL
docetaxel half-life [2, 6]: 10 to 19 h
docetaxel Cmax associated with increased incidence of adverse effects ([2]; plasma, therapeutic window, FIG. 2): above 0.64 μg/ml
Partial Tumor Regression (%) ([3]; docetaxel 9 mg/kg): 0%
TGD ([3]; docetaxel 9 mg/kg): 11
TGD (%) ([3]; docetaxel 9 mg/kg): 42%
TGI (%) ([3]; docetaxel 9 mg/kg): 38%
median survival ([3]; docetaxel 9 mg/kg): 47 days
Partial Tumor Regression (%) ([3]; docetaxel 18 mg/kg): 33%
TGD ([3]; docetaxel 18 mg/kg): 41
TGD (%) ([3]; docetaxel 18 mg/kg): 154%
TGI (%) ([3]; docetaxel 18 mg/kg): 91%
median survival ([3]; docetaxel 18 mg/kg): 81 days
Partial Tumor Regression (%) ([3]; docetaxel 27 mg/kg): 60%
TGD ([3]; docetaxel 27 mg/kg): 42
TGD (%) ([3]; docetaxel 27 mg/kg): 157%
TGI (%) ([3]; docetaxel 27 mg/kg): 98%
median survival ([3]; docetaxel 27 mg/kg): 84 days
tumor growth ([3]; docetaxel 18 and 27 mg/kg): inhibited tumor growth
survival compared to saline ([3]; docetaxel 18 and 27 mg/kg, all doses of TD-1 liposomes and PEGylated TD-1 liposomes, p<0.05, Mantel-Cox log-rank): increased survival significantly more than saline
Cmax (clinical; 3 mg/m2): 15.5 ng/mL
half-life (clinical; 3 mg/m2, t1/2): 14 h
Cmax (clinical; 6 mg/m2): 36.3 ng/mL
half-life (clinical; 6 mg/m2, t1/2): 9.32 h
Cmax (clinical; 12 mg/m2): 74.7 ng/mL
half-life (clinical; 12 mg/m2, t1/2): 12.3 h
Cmax (clinical; 24 mg/m2): 149 ng/mL
half-life (clinical; 24 mg/m2, t1/2): 55.3 h
Cmax (clinical; 48 mg/m2): 187 ng/mL
half-life (clinical; 48 mg/m2, t1/2): 73.5 h
Cmax (clinical; 80 mg/m2): 307 ng/mL
half-life (clinical; 80 mg/m2, t1/2): 28.8 h
Cmax (clinical; 120 mg/m2): 702 ng/mL
half-life (clinical; 120 mg/m2, t1/2): 45.8 h
Cmax (clinical; 160 mg/m2): 879 ng/mL
half-life (clinical; 160 mg/m2, t1/2): 51.1 h
AUC(0-inf) (clinical; 190 mg/m2): 18800 ng·h/mL
Cmax (clinical; 190 mg/m2): 1130 ng/mL
half-life (clinical; 190 mg/m2, t1/2): 51.9 h
AUC(0-inf) (clinical; 225 mg/m2): 33900 ng·h/mL
Cmax (clinical; 225 mg/m2): 1040 ng/mL
half-life (clinical; 225 mg/m2, t1/2): 61.8 h
AUC(0-inf) (clinical; 270 mg/m2): 26200 ng·h/mL
Cmax (clinical; 270 mg/m2): 1190 ng/mL
half-life (clinical; 270 mg/m2, t1/2): 35.5 h
AUC(0-inf) (clinical; 320 mg/m2): 37600 ng·h/mL
Cmax (clinical; 320 mg/m2): 1740 ng/mL
half-life (clinical; 320 mg/m2, t1/2): 40.8 h
AUC(0-inf) (clinical; 380 mg/m2): 107000 ng·h/mL
Cmax (clinical; 380 mg/m2): 2900 ng/mL
half-life (clinical; 380 mg/m2, t1/2): 67.7 h
growth of PC3 human prostate xenograft (mean tumor volume over time) ([4]; IV administration, FIG. 8A): dose dependently inhibited growth
Partial Tumor Regression (%) ([4]; docetaxel 5 mg/kg (q4dx4)): 0%
TGD ([4]; docetaxel 5 mg/kg (q4dx4)): 34 days
TGD (%) ([4]; docetaxel 5 mg/kg (q4dx4)): 213%
Partial Tumor Regression (%) ([4]; docetaxel 10 mg/kg (q4dx4)): 80%
TGD ([4]; docetaxel 10 mg/kg (q4dx4)): 69 days
TGD (%) ([4]; docetaxel 10 mg/kg (q4dx4)): 431%
Partial Tumor Regression (%) ([4]; docetaxel 30 mg/kg (q21dx2)): 100%
TGD ([4]; docetaxel 30 mg/kg (q21dx2)): 73 days
TGD (%) ([4]; docetaxel 30 mg/kg (q21dx2)): 456%
Partial Tumor Regression (%) ([4]; docetaxel 60 mg/kg (q21dx2)): 100%
TGD ([4]; docetaxel 60 mg/kg (q21dx2)): 86 days
TGD (%) ([4]; docetaxel 60 mg/kg (q21dx2)): 538%
median survival ([4]; 1st dose group listed (5 mg/kg q4dx4 by order of Table 8)): 62 days
median survival ([4]; 2nd dose group listed (10 mg/kg q4dx4 by order of Table 8)): 88 days
median survival ([4]; 3rd dose group listed (30 mg/kg q21dx2 by order of Table 8)): 93 days
median survival ([4]; 4th dose group listed (60 mg/kg q21dx2 by order of Table 8)): 107 days
CL (mean) [5]: 14.13 L/h/m^2
Cmax and AUC with respect to dose [5]: remained linear with respect to dose
Vss (mean) [5]: 458.8 L/m^2
dose proportionality for Cmax and AUCinf [5]: demonstrate dose proportionality
AUC(0-inf) ([5]; 3 mg/m2): 225 ng·h/mL
AUC(0-inf) ([5]; 6 mg/m2): 265 ng·h/mL
AUC(0-inf) ([5]; 12 mg/m2): 721 ng·h/mL
AUC/Dose ([5]; 12 mg/m2): 60.1 m^2 · ng · h/ml/mg
CL ([5]; 12 mg/m2): 16.92 l/h/m^2
Cmax/Dose ([5]; 12 mg/m2): 6.22 m^2 · ng/ml/mg
Vss ([5]; 12 mg/m2): 257.1 l/m^2
AUC(0-inf) ([5]; 24 mg/m2): 4899 ng·h/mL
AUC(0-inf) ([5]; 48 mg/m2): 5297 ng·h/mL
AUC/Dose ([5]; 48 mg/m2): 110.4 m^2 · ng · h/ml/mg
CL ([5]; 48 mg/m2): 13.29 l/h/m^2
Cmax/Dose ([5]; 48 mg/m2): 3.90 m^2 · ng/ml/mg
Vss ([5]; 48 mg/m2): 705.3 l/m^2
AUC(0-inf) ([5]; 80 mg/m2): 4798 ng·h/mL
AUC(0-inf) ([5]; 120 mg/m2): 28103 ng·h/mL
AUC/Dose ([5]; 120 mg/m2): 234.2 m^2 · ng · h/ml/mg
CL ([5]; 120 mg/m2): 7.15 l/h/m^2
Cmax/Dose ([5]; 120 mg/m2): 5.85 m^2 · ng/ml/mg
Vss ([5]; 120 mg/m2): 292.5 l/m^2
AUC(0-inf) ([5]; 160 mg/m2): 16518 ng·h/mL
AUC/Dose ([5]; 225 mg/m2): 150.8 m^2 · ng · h/ml/mg
CL ([5]; 225 mg/m2): 6.75 l/h/m^2
Cmax/Dose ([5]; 225 mg/m2): 4.64 m^2 · ng/ml/mg
Vss ([5]; 225 mg/m2): 413.4 l/m^2
AUC/Dose ([5]; 320 mg/m2): 117.6 m^2 · ng · h/ml/mg
CL ([5]; 320 mg/m2): 9.14 l/h/m^2
Cmax/Dose ([5]; 320 mg/m2): 5.43 m^2 · ng/ml/mg
Vss ([5]; 320 mg/m2): 404.0 l/m^2
